One test has as its target PI3K-alpha (Homo sapiens, UniProt P42336). Put plainly: PI3K-alpha fluorescence polarization assay. The class given is biochemical. The following applies: read-out: PI3Kα Avg. IC50. For orientation: Fluorescence polarisation rises when a labelled molecule tumbles more slowly, as on binding a larger partner.
The next test deals with PI3K-gamma (Homo sapiens, UniProt P48736). The test can be described thus: PI3K-gamma fluorescence polarization assay. The following applies: PI3Kγ Avg. IC50. It is filed as biochemical. The method, then: PI3K-Alpha, PI3K-Beta, PI3K-Gamma, and PI3K-delta Fluorescence Polarization Assay Protocols
PI3-Kinase reactions were performed in 5 mM HEPES, pH 7, 2.5 mM MgCl2, and 25 μM ATP, with diC8-PI(4,5)P2 (Echelon, Salt Lake City Utah) as substrate. Nunc 384-well black polypropylene fluorescent plates were used for PI3K assays. Reactions were quenched by the addition of EDTA to a final concentration of 10 mM. Final reaction volumes were 10 μl. For evaluation of PI3K inhibitors, 5 ng of enzyme (PI3K-alpha, beta, gamma, or delta) and 2.5 μM of substrate was used per […] reaction volume, and inhibitor concentrations ranged from 100 μM to 20 μM; the final level of DMSO in reactions never exceeded 2%. Reactions were allowed to proceed for one hour at 25° C. After 1 hour, GST-tagged GRP1 (general receptor for phosphoinositides) PH domain fusion protein was added to a final concentration of 100 nM, and BODIPY-TMRI(1,3,4,5)P4 (Echelon) was also added to a final concentration of 5 nM. Final sample volumes were 25 μl with a final DMSO concentration of 0.8%. Assay Plates were read on Perkin-Elmer Envision plate readers with appropriate filters for Tamra [BODIPY-TMRI(1,3,4,5)P4]. Data obtained were used to calculate enzymatic activity and enzyme inhibition by inhibitor compounds.

Each structure is given as a SMILES string.

PI3K-alpha, sequence (P42336 whole entry, species assumed): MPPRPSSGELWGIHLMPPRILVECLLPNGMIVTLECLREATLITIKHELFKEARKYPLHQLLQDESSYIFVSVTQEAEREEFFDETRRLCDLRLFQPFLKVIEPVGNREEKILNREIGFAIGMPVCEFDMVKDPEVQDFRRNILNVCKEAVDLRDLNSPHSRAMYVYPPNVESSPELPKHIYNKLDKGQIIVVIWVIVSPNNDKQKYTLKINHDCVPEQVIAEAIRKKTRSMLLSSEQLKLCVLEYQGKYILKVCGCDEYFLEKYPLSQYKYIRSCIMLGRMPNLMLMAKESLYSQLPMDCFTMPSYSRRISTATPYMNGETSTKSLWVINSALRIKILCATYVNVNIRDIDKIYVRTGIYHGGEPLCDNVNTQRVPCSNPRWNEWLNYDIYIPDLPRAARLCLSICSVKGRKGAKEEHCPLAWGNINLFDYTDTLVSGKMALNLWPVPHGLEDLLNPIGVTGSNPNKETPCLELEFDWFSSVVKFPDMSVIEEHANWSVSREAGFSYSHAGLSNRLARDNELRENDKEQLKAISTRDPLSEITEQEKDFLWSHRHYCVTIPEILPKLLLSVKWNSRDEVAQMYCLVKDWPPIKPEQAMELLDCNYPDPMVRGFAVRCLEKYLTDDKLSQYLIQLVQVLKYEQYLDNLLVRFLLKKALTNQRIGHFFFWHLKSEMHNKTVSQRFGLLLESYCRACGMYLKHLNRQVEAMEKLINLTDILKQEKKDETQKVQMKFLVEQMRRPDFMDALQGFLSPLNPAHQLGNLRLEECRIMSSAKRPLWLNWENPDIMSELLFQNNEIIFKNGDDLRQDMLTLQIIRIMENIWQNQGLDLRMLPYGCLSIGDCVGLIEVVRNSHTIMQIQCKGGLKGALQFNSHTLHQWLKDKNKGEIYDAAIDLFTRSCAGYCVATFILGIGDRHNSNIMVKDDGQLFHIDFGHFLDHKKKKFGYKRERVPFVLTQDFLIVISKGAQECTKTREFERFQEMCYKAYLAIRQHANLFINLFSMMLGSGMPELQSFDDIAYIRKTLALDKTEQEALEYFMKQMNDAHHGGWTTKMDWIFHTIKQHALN
PI3K-alpha, sequence (P27986 whole entry partner, species assumed): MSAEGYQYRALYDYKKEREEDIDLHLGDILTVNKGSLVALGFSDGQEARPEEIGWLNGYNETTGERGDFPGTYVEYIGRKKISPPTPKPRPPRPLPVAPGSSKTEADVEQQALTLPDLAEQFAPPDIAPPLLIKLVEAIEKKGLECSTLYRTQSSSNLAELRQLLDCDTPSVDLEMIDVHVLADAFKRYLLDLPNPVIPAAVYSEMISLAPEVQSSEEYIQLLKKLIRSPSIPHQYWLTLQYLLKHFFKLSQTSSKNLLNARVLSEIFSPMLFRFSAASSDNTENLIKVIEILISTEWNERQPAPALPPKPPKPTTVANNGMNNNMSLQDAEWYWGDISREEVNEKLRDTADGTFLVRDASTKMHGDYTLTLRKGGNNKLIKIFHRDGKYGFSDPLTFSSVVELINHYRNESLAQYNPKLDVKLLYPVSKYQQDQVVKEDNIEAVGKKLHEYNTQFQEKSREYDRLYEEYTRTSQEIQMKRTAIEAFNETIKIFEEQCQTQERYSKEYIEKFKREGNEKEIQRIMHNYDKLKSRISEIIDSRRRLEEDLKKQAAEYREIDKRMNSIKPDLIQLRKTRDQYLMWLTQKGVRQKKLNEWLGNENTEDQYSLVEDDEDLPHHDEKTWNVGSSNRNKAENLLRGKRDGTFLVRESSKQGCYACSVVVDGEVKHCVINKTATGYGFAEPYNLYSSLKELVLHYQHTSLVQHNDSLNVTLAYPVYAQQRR
PI3K-gamma, sequence (P48736 whole entry, species assumed): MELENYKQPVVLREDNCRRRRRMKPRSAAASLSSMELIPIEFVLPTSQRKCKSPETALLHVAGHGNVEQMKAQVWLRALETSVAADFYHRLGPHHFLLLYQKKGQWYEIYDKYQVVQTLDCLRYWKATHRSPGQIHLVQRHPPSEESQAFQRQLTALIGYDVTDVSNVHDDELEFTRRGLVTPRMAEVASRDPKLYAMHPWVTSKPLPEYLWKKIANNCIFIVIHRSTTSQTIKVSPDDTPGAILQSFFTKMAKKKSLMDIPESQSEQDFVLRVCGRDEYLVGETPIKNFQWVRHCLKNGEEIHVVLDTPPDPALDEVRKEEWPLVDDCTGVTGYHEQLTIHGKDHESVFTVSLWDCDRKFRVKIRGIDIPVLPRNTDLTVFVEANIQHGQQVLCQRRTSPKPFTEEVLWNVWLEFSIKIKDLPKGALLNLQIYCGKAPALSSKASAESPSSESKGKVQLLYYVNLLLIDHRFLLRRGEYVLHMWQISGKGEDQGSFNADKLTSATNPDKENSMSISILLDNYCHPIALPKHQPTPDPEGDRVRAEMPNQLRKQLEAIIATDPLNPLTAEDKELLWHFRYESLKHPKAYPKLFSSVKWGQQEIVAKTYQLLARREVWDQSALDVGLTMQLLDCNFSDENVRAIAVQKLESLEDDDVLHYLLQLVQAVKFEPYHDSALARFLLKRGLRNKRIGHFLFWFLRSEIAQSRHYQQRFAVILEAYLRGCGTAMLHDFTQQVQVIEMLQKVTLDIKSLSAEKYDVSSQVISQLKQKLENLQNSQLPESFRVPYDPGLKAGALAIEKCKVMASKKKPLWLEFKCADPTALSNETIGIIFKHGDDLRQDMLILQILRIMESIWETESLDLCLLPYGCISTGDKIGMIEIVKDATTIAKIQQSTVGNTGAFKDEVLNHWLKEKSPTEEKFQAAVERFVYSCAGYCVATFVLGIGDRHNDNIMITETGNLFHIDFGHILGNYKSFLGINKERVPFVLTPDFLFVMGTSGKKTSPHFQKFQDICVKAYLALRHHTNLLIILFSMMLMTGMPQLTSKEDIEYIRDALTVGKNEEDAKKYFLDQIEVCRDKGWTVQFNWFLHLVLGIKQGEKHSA

A word on the IC50: it is the concentration that inhibits the measured activity by half. Consider `COc1ccc2c(c1)c(/C=C1\Oc3ccc(O)cc3C1=O)cn2CCCN(C)C` [Compound 515, (2Z)-2-({1-[3-(dimethylamino)propyl]-5-methoxy-1H-indol-3-yl}methylene)-5-hydroxy-1-benzofuran-3(2H)-one], for which the concentration for half-maximal inhibition (IC50) on PI3K-alpha was determined as 1170 nM; against PI3K-gamma it was 2510 nM.
The corresponding values for `COc1ccc2[nH]cc(/C=C3\Oc4cc(O)cc(CO)c4C3=O)c2c1` [Compound 517, (2Z)-6-hydroxy-4-(hydroxymethyl)-2-[(5-methoxy-1H-indol-3-yl)methylene]-1-benzofuran-3(2H)-one] are 82.5 nM and 714 nM.
For `COc1ccc2[nH]cc(/C=C3\Oc4cc(O)cc(C(N)=O)c4C3=O)c2c1` [Compound 518, (2Z)-6-hydroxy-2-[(5-methoxy-1H-indol-3-yl)methylene]-3-oxo-2,3-dihydro-1-benzofuran-4-carboxamide], in that order: 451 nM and 1150 nM.
For `COc1ccc2c(c1)c(/C=C1\Oc3ccc(O)cc3C1=O)c(C)n2CCN1CCN(C)CC1` [Compound 519], in that order: 273 nM and 6050 nM.
Turning to `CNC(=O)Nc1ccc2c(c1)C(=O)/C(=C/c1cn(CCCN(C)C)c3ccc(OC)cc13)O2` [Compound 520, 1-[(2Z)-2-({1-[3-(dimethylamino)propyl]-5-methoxy-1H-indol-3-yl}methylene)-3-oxo-2,3-dihydro-1-benzofuran-5-yl]-3-methylurea], the IC50 turned out to be 72.5 nM at PI3K-alpha and 4020 nM at PI3K-gamma.
In the case of `Cn1c(-c2ccccc2)c(/C=C2\Oc3cc(O)cc(O)c3C2=O)c2c(N)cccc21` [Compound 521, (2Z)-2-[(4-amino-1-methyl-2-phenyl-1H-indol-3-yl)methylene]-4,6-dihydroxy-1-benzofuran-3(2H)-one], the IC50 on PI3K-alpha came out at 2470 nM; on PI3K-gamma, 8510 nM.
`COc1ccc2[nH]cc(/C=C3\Oc4ccc(Br)cc4C3=O)c2c1` [Compound 522, (2Z)-5-bromo-2-[(5-methoxy-1H-indol-3-yl)methylene]-1-benzofuran-3(2H)-one]: the IC50 on PI3K-alpha and on PI3K-gamma was more than 10000 nM throughout.
On to `COc1ccc2[nH]cc(/C=C3\Oc4ccc(C#N)cc4C3=O)c2c1` [Compound 523, (2Z)-2-[(5-methoxy-1H-indol-3-yl)methylene]-3-oxo-2,3-dihydro-1-benzofuran-5-carbonitrile], for which the concentration for half-maximal inhibition (IC50) at PI3K-alpha and against PI3K-gamma was more than 10000 nM throughout.
For `COc1ccc2[nH]cc(/C=C3\Oc4ccc(-c5nnn[nH]5)cc4C3=O)c2c1` [Compound 524, (2Z)-2-[(5-methoxy-1H-indol-3-yl)methylene]-5-(1H-tetrazol-5-yl)-1-benzofuran-3(2H)-one], the results for the IC50 at PI3K-alpha and at PI3K-gamma were 12000 nM and more than 10000 nM, respectively.
On to `COc1ccc2c(c1)c(/C=C1\Oc3ccc(NC(C)=O)cc3C1=O)cn2CCCN(C)C` [Compound 525, N-[(2Z)-2-({1-[3-(dimethylamino)propyl]-5-methoxy-1H-indol-3-yl}methylene)-3-oxo-2,3-dihydro-1-benzofuran-5-yl]acetamide], for which the half-maximal inhibitory concentration (IC50) was 1270 nM on PI3K-alpha and more than 10000 nM at PI3K-gamma.
For `CNC(=O)Nc1cc(O)cc2c1C(=O)/C(=C/c1c[nH]c3ccc(OC)cc13)O2` [Compound 526, 1-{(2Z)-6-hydroxy-2-[(5-methoxy-1H-indol-3-yl)methylene]-3-oxo-2,3-dihydro-1-benzofuran-4-yl}-3-methylurea], in that order: 6190 nM and more than 10000 nM.
For `Cn1cc(/C=C2\Oc3ccc(Br)cc3C2=O)c2c(-c3ccccc3)cccc21` [Compound 527, (2Z)-5-bromo-2-[(1-methyl-4-phenyl-1H-indol-3-yl)methylene]-1-benzofuran-3(2H)-one], in that order: 2990 nM and 3810 nM.
Take `CNC(=O)Nc1ccc2c(c1)C(=O)/C(=C/c1cn(C)c3cccc(-c4ccccc4)c13)O2` [Compound 528, 1-methyl-3-{(2Z)-2-[(1-methyl-4-phenyl-1H-indol-3-yl)methylene]-3-oxo-2,3-dihydro-1-benzofuran-5-yl}urea]: the IC50 at PI3K-alpha and against PI3K-gamma was more than 10000 nM in each case.
Regarding `COc1ccc2[nH]cc(/C=C3\Oc4cc(O)c(O)cc4C3=O)c2c1` [Compound 529, (2Z)-5,6-dihydroxy-2-[(5-methoxy-1H-indol-3-yl)methylene]-1-benzofuran-3(2H)-one], the concentration for half-maximal inhibition (IC50) was 221 nM at PI3K-alpha and 8050 nM against PI3K-gamma.
For the compound `Cn1cc(/C=C2\Oc3ccc(O)cc3C2=O)c2c(-c3ccccc3)cccc21` [Compound 530, (2Z)-5-hydroxy-2-[(1-methyl-4-phenyl-1H-indol-3-yl)methylene]-1-benzofuran-3(2H)-one], the IC50 at PI3K-alpha and against PI3K-gamma was more than 10000 nM throughout.
For the compound `Cn1cc(/C=C2\Oc3cc(O)cc(O)c3C2=O)c2c(-c3ccccc3)cccc21` [Compound 531, (2Z)-4,6-dihydroxy-2-[(1-methyl-4-phenyl-1H-indol-3-yl)methylene]-1-benzofuran-3(2H)-one], the 50% inhibitory concentration (IC50) was 340 nM at PI3K-alpha and 2530 nM at PI3K-gamma.
For `Cn1cc(/C=C2\Oc3ccc(NC(=O)OC(C)(C)C)cc3C2=O)c2c(-c3ccccc3)cccc21` [Compound 532, tert-butyl {(2Z)-2-[(1-methyl-4-phenyl-1H-indol-3-yl)methylene]-3-oxo-2,3-dihydro-1-benzofuran-5-yl}carbamate], in that order: more than 10000 nM and more than 10000 nM.
In the case of `CNC(=O)Nc1ccc2c(c1)C(=O)/C(=C/c1c(C3CCCCC3)n(CCN3CCN(C)CC3)c3ccc(OC)cc13)O2` [Compound 533, 1-[(2Z)-2-({2-cyclohexyl-5-methoxy-1-[2-(4-methylpiperazin-1-yl)ethyl]-1H-indol-3-yl}methylene)-3-oxo-2,3-dihydro-1-benzofuran-5-yl]-3-methylurea], the results for the IC50 at PI3K-alpha and at PI3K-gamma were 2.2 nM and 389 nM, respectively.
As to `Cn1cc(/C=C2\Oc3ccc(N)cc3C2=O)c2c(-c3ccccc3)cccc21` [Compound 534, (2Z)-5-amino-2-[(1-methyl-4-phenyl-1H-indol-3-yl)methylene]-1-benzofuran-3(2H)-one], the IC50 on PI3K-alpha came to 5880 nM; against PI3K-gamma it was 476 nM.
For `Cn1cc(/C=C2\Oc3ccc(NC(=O)Nc4cccnc4)cc3C2=O)c2c(-c3ccccc3)cccc21` [Compound 535, 1-{(2Z)-2-[(1-methyl-4-phenyl-1H-indol-3-yl)methylene]-3-oxo-2,3-dihydro-1-benzofuran-5-yl}-3-pyridin-3-ylurea], in that order: more than 10000 nM and more than 10000 nM.
For `CNC(=O)Nc1ccc2c(c1)C(=O)/C(=C/c1c[nH]c3ccc(OC)cc13)O2` [Compound 536, 1-{(2Z)-2-[(5-methoxy-1H-indol-3-yl)methylene]-3-oxo-2,3-dihydro-1-benzofuran-5-yl}-3-methylurea], in that order: 58.5 nM and 545 nM.
As for `COc1ccc2c(c1)c(/C=C1\Oc3ccc(NC(N)=O)cc3C1=O)cn2CCCN(C)C` [Compound 537, 1-[(2Z)-2-({1-[3-(dimethylamino)propyl]-5-methoxy-1H-indol-3-yl}methylene)-3-oxo-2,3-dihydro-1-benzofuran-5-yl]urea], the figures for the half-maximal inhibitory concentration (IC50) on PI3K-alpha and against PI3K-gamma were 421 nM and more than 10000 nM, respectively.
As to `COC(=O)Nc1ccc2c(c1)C(=O)/C(=C/c1cn(CCCN(C)C)c3ccc(OC)cc13)O2` [Compound 538, methyl [(2Z)-2-({1-[3-(dimethylamino)propyl]-5-methoxy-1H-indol-3-yl}methylene)-3-oxo-2,3-dihydro-1-benzofuran-5-yl]carbamate], the IC50 is 820 nM at PI3K-alpha and more than 10000 nM at PI3K-gamma.
With `CNC(=O)c1ccc2c(c1)C(=O)/C(=C/c1cn(CCCN(C)C)c3ccc(OC)cc13)O2` [Compound 539, (2Z)-2-({1-[3-(dimethylamino)propyl]-5-methoxy-1H-indol-3-yl}methylene)-Nmethyl-3-oxo-2,3-dihydro-1-benzofuran-5-carboxamide], the IC50 on PI3K-alpha and against PI3K-gamma was more than 10000 nM throughout.
Turning to `COc1ccc(NC(=O)Nc2ccc3c(c2)C(=O)/C(=C/c2cn(CCCN(C)C)c4ccc(OC)cc24)O3)cc1` [Compound 540, 1-[(2Z)-2-({1-[3-(dimethylamino)propyl]-5-methoxy-1H-indol-3-yl}methylene)-3-oxo-2,3-dihydro-1-benzofuran-5-yl]-3-(4-methoxyphenyl)urea], the IC50 on PI3K-alpha was 104 nM; at PI3K-gamma, 1550 nM.
For `COc1ccc2c(c1)c(/C=C1\Oc3ccc(CO)cc3C1=O)cn2CCN1CCN(C)CC1` [Compound 541, (2Z)-5-(hydroxymethyl)-2-({5-methoxy-1-[2-(4-methylpiperazin-1-yl)ethyl]-1Hindol-3-yl}methylene)-1-benzofuran-3(2H)-one], in that order: 1380 nM and 9100 nM.
For `CCNC(=O)Nc1ccc2c(c1)C(=O)/C(=C/c1cn(C)c3cccc(-c4ccccc4)c13)O2` [Compound 543, 1-ethyl-3-{(2Z)-2-[(1-methyl-4-phenyl-1H-indol-3-yl)methylidene]-3-oxo-2,3-dihydro-1-benzofuran-5-yl}urea], in that order: more than 10000 nM and more than 10000 nM.

The record behind these values is patent US20090311217A1, “3-SUBSTITUTED-1H-INDOLE COMPOUNDS, THEIR USE AS MTOR KINASE AND PI3 KINASE INHIBITORS, AND THEIR SYNTHESES” (priority 2008, published 2009).
